Source: patent publication US11479546B2, “Antimalarial hexahydropyrimidine analogues” (UCB Biopharma SRL, priority 2018, dated 2022)

System: Plasmodium falciparum 3D7
Experiment: P. falciparum 3D7 asexual blood stage assay, Assay Procedure Version 1 (SYBR green readout)
Assay type: cell-based
Settings: 3D7, Erythrocyte, Version 1 of the assay procedure (no asterisk), 72 h incubation in infected erythrocytes, 10,000 nM to 0.51 nM
Method in brief: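 Erythrocytes at 5% haematocrit, 0.5% parasitaemia, exposed 72 h at 37° C (1% O2, 3% CO2) to 10-point 3-fold titrations, 10,000–0.51 nM final in 0.5% DMSO. SYBR green in lysis buffer overnight, fluorescence 485/528 nm; % inhibition versus controls, EC50 from 4-parameter fit.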

C[C@@]1(c2cccc(Nc3ccc(Cl)cc3)c2Cl)CC(=O)N(C2CCOCC2)C(=N)N1 [Example 162, (6S)-6-[2-Chloro-3-(4-chloro-anilino)phenyl]-2-imino-6-methyl-3-(tetrahydropyran-4-yl)hexahydropyrimidin-4-one] was tested, and the IC50 was 905 nM.
C[C@@]1(c2cccc(Nc3cccc(C(F)(F)F)c3)c2Cl)CC(=O)N(C2CCOCC2)C(=N)N1 [Example 163, (6S)-6-{2-Chloro-3-[3-(trifluoromethyl)anilino]-phenyl}-2-imino-6-methyl-3-(tetrahydropyran-4-yl)-hexahydropyrimidin-4-one] gave an IC50 of 913 nM.
Work on COc1ccc(Nc2cccc([C@]3(C)CC(=O)N(C4CCOCC4)C(=N)N3)c2Cl)cc1OC [Example 164, (6S)-6-[2-Chloro-3-(3,4-dimethoxyanilino)phenyl]-2-imino-6-methyl-3-(tetrahydro-pyran-4-yl)hexahydropyrimidin-4-one] yielded an IC50 of 2200 nM.
With Cc1ccccc1Nc1cccc([C@]2(C)CC(=O)N(C3CCOCC3)C(=N)N2)c1Cl [Example 165, (6S)-6-[2-Chloro-3-(2-methyl-anilino)phenyl]-2-imino-6-methyl-3-(tetrahydropyran-4-yl)hexahydropyrimidin-4-one] the IC50 was 890 nM.
With COC(=O)c1cccc(Nc2cccc([C@]3(C)CC(=O)N(C4CCOCC4)C(=N)N3)c2Cl)c1 [Example 166, Methyl 3-{2-chloro-3-[(4S)-2-imino-4-methyl-6-oxo-1-(tetrahydropyran-4-yl)-hexahydropyrimidin-4-yl]-anilino}benzoate] the IC50 was 1780 nM.
For C[C@@]1(c2cccc(Nc3ccc(F)c(Cl)c3)c2Cl)CC(=O)N(C2CCOCC2)C(=N)N1 [Example 167, (6S)-6-[2-Chloro-3-(3-chloro-4-fluoroanilino)phenyl]-2-imino-6-methyl-3-(tetrahydropyran-4-yl)hexahydropyrimidin-4-one], the IC50 was 627 nM.
With C[C@@]1(c2cccc(Nc3cccc(F)c3)c2Cl)CC(=O)N(C2CCOCC2)C(=N)N1 [Example 168, (6S)-6-[2-Chloro-3-(3-fluoro-anilino)phenyl]-2-imino-6-methyl-3-(tetrahydropyran-4-yl)hexahydropyrimidin-4-one] the IC50 was 252 nM.
C[C@@]1(c2cccc(Nc3ccc(F)cc3)c2Cl)CC(=O)N(C2CC3(COC3)C2)C(=N)N1 [Example 171, (6S)-6-[2-Chloro-3-(4-fluoro-anilino)phenyl]-2-imino-6-methyl-3-(2-oxaspiro[3.3]-heptan-6-yl)hexahydro-pyrimidin-4-one] showed an IC50 of 1140 nM.
Work on CC1(O)CC(N2C(=N)N[C@](C)(c3cccc(Nc4ccc(F)cc4)c3Cl)CC2=O)C1 (stereo partly drawn) [Example 172, (6S)-6-[2-Chloro-3-(4-fluoro-anilino)phenyl]-3-(3-hydroxy-3-methylcyclobutyl)-2-imino-6-methylhexahydropyrimidin-4-one] yielded an IC50 of 228 nM.
In the case of C[C@@]1(c2cccc(Nc3ccc(C(F)(F)F)cc3)c2Cl)CC(=O)N(CC2CCOCC2)C(=N)N1 [Example 173, (6S)-6-{2-Chloro-3-[4-(trifluoromethyl)anilino]-phenyl}-2-imino-6-methyl-3-(tetrahydropyran-4-ylmethyl)-hexahydropyrimidin-4-one], the IC50 is reported as 1540 nM.
CC1(CN2C(=N)N[C@](C)(c3cccc(Nc4ccc(F)cc4)c3Cl)CC2=O)COC1 [Example 175, (6S)-6-[2-Chloro-3-(4-fluoro-anilino)phenyl]-2-imino-6-methyl-3-[(3-methyloxetan-3-yl)methyl]hexahydropyrimidin-4-one] showed an IC50 of 2820 nM.
With C[C@@]1(c2ccc(F)c(Nc3ccc(F)cc3)c2Cl)CC(=O)N(C2CCOCC2)C(=N)N1 [Example 206, (6S)-6-[2-Chloro-4-fluoro-3-(4-fluoroanilino)phenyl]-2-imino-6-methyl-3-(tetrahydro-pyran-4-yl)hexahydropyrimidin-4-one] the IC50 was 243 nM.
Cc1ccc(Nc2c(F)ccc([C@]3(C)CC(=O)N(C4CCOCC4)C(=N)N3)c2Cl)cn1 [Example 207, (6S)-6-{2-Chloro-4-fluoro-3-[(6-methylpyridin-3-yl)amino]phenyl}-2-imino-6-methyl-3-(tetrahydropyran-4-yl)hexahydropyrimidin-4-one] was tested, and the IC50 was 659 nM.
